PubChem BioAssay (NCI)
“And” between values parts separate entries of the source, which are not always exact repeats. Equal entries are not always repeated.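 48-hour exposure; five concentrations; linearly interpolated endpoints. The concentration for 50% growth inhibition is given as GI50. Definition used: TGI = concentration required for complete inhibition of growth.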

Tests used:
Experiment in all cases: NCI-60 cell line screen, 48 h
DU-145 prostate = system: DU-145 prostate
HS 578T breast = system: HS 578T breast
LOX IMVI melanoma = system: LOX IMVI melanoma
M14 melanoma = system: M14 melanoma
MDA-MB-435 = system: MDA-MB-435
MOLT-4 leukemia = system: MOLT-4 leukemia
OVCAR-8 ovarian = system: OVCAR-8 ovarian
SF-539 CNS = system: SF-539 CNS
SK-MEL-28 melanoma = system: SK-MEL-28 melanoma
U251 CNS = system: U251 CNS

Compound | TGI (DU-145 prostate) [µM] | TGI (HS 578T breast) [µM] | TGI (LOX IMVI melanoma) | TGI (M14 melanoma) [µM] | TGI (MDA-MB-435) [µM] | TGI (MOLT-4 leukemia) [µM] | TGI (OVCAR-8 ovarian) | TGI (SF-539 CNS) [µM] | TGI (SK-MEL-28 melanoma) | TGI (U251 CNS) [µM] | GI50 (DU-145 prostate) [µM] | GI50 (HS 578T breast) | GI50 (LOX IMVI melanoma) | GI50 (M14 melanoma) | GI50 (MDA-MB-435) | GI50 (MOLT-4 leukemia) [µM] | GI50 (OVCAR-8 ovarian) | GI50 (SF-539 CNS) | GI50 (SK-MEL-28 melanoma) | GI50 (U251 CNS) [µM]
C=C1C(=O)OC2/C=C(\CO)CC/C=C(\CO)CC(OC(=O)C(C)C)C12 (stereo unspecified) | 29.5 | 49 | 45.8 µM | 19.9 | 29.5 | > 27.4 | 45.7 µM | 29 | 42.4 µM | 43.3 | – | – | – | – | – | – | – | – | – | –
c1ccc(B2OCC(C3OB(c4ccccc4)OC4COB(c5ccccc5)OC43)O2)cc1 (stereo unspecified) | > 100 | > 100 | > 100 µM | > 100 | > 100 | > 100 | > 100 µM | > 100 | > 100 µM | > 100 | – | – | – | – | – | – | – | – | – | –
Clc1cc(-c2ccccc2)nc2ccccc12 | > 100 | > 100 | > 100 µM | > 100 | 95.4 | 54.6 | > 100 µM | > 100 | > 100 µM | > 100 | – | – | – | – | – | – | – | – | – | –
CC1(C)CC([P+](c2ccccc2)(c2ccccc2)c2ccccc2)=NN1 | > 100 | > 100 | > 100 µM | > 100 | > 100 | > 100 | > 100 µM | 97.3 | > 100 µM | > 100 | 4.34 | 4.96 µM | 3.74 µM | 11.4 µM | 2.79 µM | 6.03 | 5.92 µM | 6.13 µM | 8.67 µM | 2
Cc1ncc(C(=O)Nc2ccc(CN3CCN(C)CC3)c(C(F)(F)F)c2)cc1C#Cc1c(N)ncc2ccccc12 | 0.997 | 1.26 | 0.605 µM | 0.476 | 0.624 | 0.836 | 1.28 µM | 0.914 | 0.889 µM | 1.07 | 0.502 | 0.356 µM | 0.173 µM | 0.0923 µM | 0.163 µM | 0.228 | 0.566 µM | 0.47 µM | 0.411 µM | 0.539
CCOc1nccc2c1nc(-c1nonc1N)n2CC | > 25 | > 25 | > 25 µM | > 25 | > 25 | > 25 | > 25 µM | > 25 | > 25 µM | > 25 | > 25 | > 25 µM | > 25 µM | > 25 µM | > 25 µM | > 25 | > 25 µM | > 25 µM | > 25 µM | > 25
Cn1cnc2c(F)c(Nc3ccc(Br)cc3F)c(C(=O)NOCCO)cc21 | > 100 | > 100 | > 4.03 µM and 42.8 µM | 0.307 | > 100 | > 100 | > 100 µM | > 100 | 0.321 µM and 0.889 µM | > 100 | 51.1 | > 2.14 µM and 33.6 µM | 0.0936 µM and 0.399 µM | 0.0175 µM and 0.0233 µM | 0.0609 µM and 0.0547 µM | > 100 | > 2.17 µM and 99.7 µM | > 3.24 µM and 21.5 µM | 0.0269 µM and 0.0304 µM | 7.78
C=C1C(OC/C=C/COC2O[C@@H]3O[C@@]4(C)CC[C@H]5[C@H](C)CC[C@@H](C2=C)[C@@]35OO4)O[C@@H]2O[C@@]3(C)CC[C@H]4[C@H](C)CC[C@@H]1[C@@]24OO3 (stereo partly specified) | 37.6 | 59.6 | 2.09 µM | 27.5 | 21.5 | > 100 | > 36.6 µM | 25.2 | 52.2 µM | 25.7 | 15.5 | 12.6 µM | 0.14 µM | 10.7 µM | 0.301 µM | 0.309 | 1.96 µM | 10 µM | 12.3 µM | 12.1
COc1cc(F)c(/C=C/c2cc(/C=C/c3cc(OC)c(OC)cc3F)n(-c3cc(F)cc(F)c3)n2)cc1OC | 18.1 | 18.9 | 8.3 µM | 3.53 | 4.63 | > 100 | – | 9.17 | 5.75 µM | 3.15 | 3.68 | 4.04 µM | 2.62 µM | 1.74 µM | 2.03 µM | 6.64 | – | 2.7 µM | 2.36 µM | 1.69
FC(F)(F)c1cccc2c(SCCc3n[nH]c(=S)o3)ccnc12 | > 100 | > 100 | > 100 µM | – | > 100 | > 100 | > 100 µM | > 100 | > 100 µM | > 100 | 78.4 | 30.1 µM | 67 µM | – | 45.4 µM | 31.2 | 36.5 µM | 45.9 µM | 82.9 µM | 53.3
CC(C)C[C@H](NC(=O)[C@H](Cc1cccc2ccccc12)NS(=O)(=O)c1cccc2cccnc12)B(O)O | 0.524 | 0.017 | 0.0226 µM and < 0.0199 µM | – | 0.000574 | 0.00228 | 0.409 µM and 2.9 µM | – | 0.0116 µM | 1.45 | – | 0.00137 µM | 0.00137 µM | – | 0.000241 µM | 0.000334 | 0.117 µM | 0.000193 µM | 0.000701 µM | 0.011
O=C(CCSc1ccnc2c(C(F)(F)F)cccc12)N/N=C/c1cc(Cl)c(Cl)cc1Cl | 40 | 49.8 | 31.8 µM | – | 75.4 | 98.8 | 86 µM | 35.4 | 32.5 µM | 32.4 | 18.2 | 23.9 µM | 17.8 µM | – | 27.3 µM | 32.2 | 32.5 µM | 18 µM | 17 µM | 18.4
C=C(CNC(=O)c1ccccc1)c1ccc(C(=O)Nc2ccccc2N)cc1 | > 100 | > 100 | 73.2 µM | – | > 100 | > 100 | > 100 µM | > 100 | > 100 µM | 74.5 | 4.08 | 20 µM | 6.1 µM | – | 6.88 µM | 1.49 | 5.61 µM | 1.38 µM | 14 µM | 5.43
Nc1c(C(=O)N/N=C/c2ccc(-c3cc(Cl)c(Cl)cc3Cl)o2)cnn1-c1ccnc2c(C(F)(F)F)cccc12 | > 100 | > 100 | > 100 µM | > 100 | > 100 | > 100 | – | 38.7 | > 100 µM | > 100 | 3.56 | 5.04 µM | 4.37 µM | 5.28 µM | 3.85 µM | 2.91 | – | 5.48 µM | 4.03 µM | 4.18
